Laboratory results as given in publication PMC10795023, “Structural Optimization and Biological Evaluation of Isoxazolo[5,4-d]pyrimidines as Selective Toll-Like Receptor 7 Agonists” (ACS Omega, 2024).
“Also recorded” adds a separate entry of the source.

Key:
[1] = test system: HEK293 cell line cotransfected with the hTLR7 gene; assay: Cytotoxicity, MTS cell proliferation assay; format: cell-based, human; conditions: 24 h
Protocol: The cytotoxicity of the compounds was determined by the MTS assay at concentrations of 150, 50, and 10 μM on the HEK293 cell line cotransfected with the hTLR7 gene (Figure 3).
The cytotoxicity of the compounds was determined using the MTS cell proliferation assay (CellTiter 96 AQueous One Solution Cell Proliferation Assay, Promega, Wisconsin, USA), according to the manufacturer's protocol on the HEK293 cell line, cotransfected with the hTLR7 gene (InVivoGen). Cells were seeded in 96-well plates (1.5 × 10^4 cells/well). After 24 h incubation at 5% CO2 and 37 °C, the cells were treated either with DMSO (negative control) or with solutions of the tested compounds in DMSO. After 24 h, MTS reagent (CellTiter 96 AQueous One Solution Cell Proliferation Assay, Promega, Wisconsin, USA) was added. Cells were incubated for another 2 h, and then absorbance was measured at 490 nm.

[2] = test system: human peripheral blood mononuclear cells (PBMCs); assay: Cytokine secretion in PBMCs, cytometric bead array; format: cell-based; conditions: 24 h; for IL-1β secretion / IL-6 concentration / IL-8 secretion / IL-10 concentration / IL-12p70 secretion / TNF-α secretion: 21a 62.5 and 12.5 μM, 24a 125 and 25 μM
Protocol: PBMCs were seeded on a 24-well plate and treated with compounds 21a (62.5 μM (21a (1)) and 12.5 μM (21a (2))) and 24a (125 μM (24a (1)) and 25 μM (24a (2))). For a positive control (PC), imiquimod (1) was used (final concentration is 10 μg/mL) and the negative control were cells treated with DMSO. […] The BD Human Cytometric Bead Array (BD Biosciences, California, USA) was used to assay the protein levels of IL-1β, IL-6, IL-8, IL-10, IL-12p70, and TNF-α in the cell culture supernatant, according to the manufacturer’s protocol (BD Biosciences). PBMCs were isolated from buffy coats obtained at the Blood Transfusion Centre of Slovenia. Cells were seeded into 24-well plates (5 × 10^5 cells/well in […] of RPMI medium, Sigma-Aldrich, St. Louis, Missouri, USA) and treated with the selected TLR7 agonist. For a PC, imiquimod was used (final concentration is 10 μg/mL) and the negative control were cells treated with DMSO. Cells were centrifuged after 24 h incubation at 5% CO2 and 37 °C, and cell culture supernatants were used for further analysis. In an assay tube, […] of the Capture Beads, […] of the Detection Reagent, and […] of sample (fivefold dilution) were mixed and incubated for 3 h at room temperature and protected from light. Samples were then washed with 1 mL of wash buffer and centrifuged at 200g for 5 min. The supernatant was carefully aspirated and discarded from each assay tube. The bead pellet was resuspended by adding […] of wash buffer. Flow cytometry was performed using a FACSCalibur system (Becton Dickinson, Inc., New Jersey, USA). A standard curve was prepared by serial dilutions of standards and used for determination of cytokine concentrations in supernatants.

hTLR7 = biological target: T1, hTLR7 (Homo sapiens, UniProt Q9NYK1); assay: TLR7 agonist activity, HEK293 hTLR7 SEAP reporter assay; format: cell-based; conditions: HEK293 cotransfected with hTLR7 and inducible SEAP reporter gene, 24 h treatment; average ± SD of three independent replicates; n.a. = not active; read-out: EC50
T1 construct: host or cells: HEK293
T1 sequence (Q9NYK1 27-1049): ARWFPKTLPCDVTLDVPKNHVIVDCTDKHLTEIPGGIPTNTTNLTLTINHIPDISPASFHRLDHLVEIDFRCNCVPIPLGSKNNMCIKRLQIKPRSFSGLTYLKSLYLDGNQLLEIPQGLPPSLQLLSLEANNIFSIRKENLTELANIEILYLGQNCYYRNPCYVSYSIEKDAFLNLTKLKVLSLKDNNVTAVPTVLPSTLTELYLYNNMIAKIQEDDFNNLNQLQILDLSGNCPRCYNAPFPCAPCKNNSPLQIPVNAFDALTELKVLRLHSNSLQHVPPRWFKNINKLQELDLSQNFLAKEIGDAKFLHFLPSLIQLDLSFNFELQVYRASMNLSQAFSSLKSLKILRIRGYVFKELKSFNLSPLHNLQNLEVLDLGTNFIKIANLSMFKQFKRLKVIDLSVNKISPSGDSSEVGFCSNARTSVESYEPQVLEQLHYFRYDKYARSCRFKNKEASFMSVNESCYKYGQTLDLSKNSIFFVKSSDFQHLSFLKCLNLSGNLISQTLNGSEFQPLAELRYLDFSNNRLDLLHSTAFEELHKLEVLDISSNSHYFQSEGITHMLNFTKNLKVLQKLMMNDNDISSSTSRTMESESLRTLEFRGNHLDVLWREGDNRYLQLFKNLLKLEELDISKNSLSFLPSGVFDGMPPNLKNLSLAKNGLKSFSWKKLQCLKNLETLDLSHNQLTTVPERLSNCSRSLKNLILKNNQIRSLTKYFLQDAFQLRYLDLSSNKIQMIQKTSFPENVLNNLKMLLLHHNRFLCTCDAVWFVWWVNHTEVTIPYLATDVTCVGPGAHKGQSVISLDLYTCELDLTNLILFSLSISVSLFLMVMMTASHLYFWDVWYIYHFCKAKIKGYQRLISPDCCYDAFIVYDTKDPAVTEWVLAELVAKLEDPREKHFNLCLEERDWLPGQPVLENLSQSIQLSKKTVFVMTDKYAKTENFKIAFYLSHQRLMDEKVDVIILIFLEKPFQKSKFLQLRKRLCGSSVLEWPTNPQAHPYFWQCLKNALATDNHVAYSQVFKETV
Protocol: TLR7 agonist activities were determined using the HEK293 cell line, which was cotransfected with the hTLR7 gene and an inducible SEAP reporter gene (InvivoGen, San Diego, California, USA) as described previously.[34] Briefly, cells were seeded in 96-well plates (3 × 10^4 cells/well) and incubated at 5% CO2 and 37 °C. After 24 h, the cells were treated with the solutions of the compounds in DMSO. Imiquimod was used as a PC. The cells were incubated again for 24 h under the same conditions. The activity of SEAP in the supernatant of the cells was measured using the QUANTI-Blue reagent (InvivoGen, San Diego, California, USA), according to the manufacturer's protocol. EC50 values were determined using GraphPad Prism 9.2.0. software (San Diego, California, USA) using the nonlinear regression curve fit and four-parameter logistic equation. All experiments were performed in three independent biological replicates. Values are given as averages from the independent measurements with standard deviations calculated.

Row | Compound | cytotoxicity (cell viability) ([1]; 150 μM) | IL-1β secretion ([2]; imiquimod 10 μg/mL) | IL-6 concentration [2] | IL-8 secretion [2] | IL-10 concentration [2] | IL-12p70 secretion [2] | TNF-α secretion [2] | EC50 (hTLR7) | cytotoxicity (cell viability) ([1]; 150, 50 and 10 μM) | induction of TNF-α secretion in comparison to 1 (imiquimod) ([2]; 21a at 62.5 μM, imiquimod 10 μg/mL)
1 | CC1CCCN(c2nc(C(F)(F)F)nc3onc(C4CCNCC4)c23)C1.Cl (stereo not drawn) [Compound 25a, 4-(4-(3-Methylpiperidin-1-yl)-6-(trifluoromethyl)isoxazolo[5,4-d]pyrimidin-3-yl)piperidin-1-ium chloride] | highly cytotoxic | – | – | – | – | – | – | – | – | –
2 | CC(C)Cn1cnc2c(N)nc3ccccc3c21 [imiquimod, reference compound] | – | stimulated the release | – | – | – | – | – | – | – | –
3 | CC(C)CNc1nc(C(F)(F)F)nc2onc(C3CCNCC3)c12.Cl [Compound 25b, 4-(4-(Isobutylamino)-6-(trifluoromethyl)isoxazolo[5,4-d]pyrimidin-3-yl)piperidin-1-ium chloride] | highly cytotoxic | – | – | – | – | – | – | – | – | –
4 | CC1CCCN(c2nc(C(F)(F)F)nc3onc(C4CC4)c23)C1 (stereo not drawn) [Compound 24a, 3-Cyclopropyl-4-(3-methylpiperidin-1-yl)-6-(trifluoromethyl)isoxazolo[5,4-d]pyrimidine] | – | induced the secretion | did not increase significantly | induced the secretion | did not increase significantly | induced the secretion | induced the secretion | 25.3 ± 3.5 µM | – | –
5 | Cl.Fc1ccc(-c2noc3nc(C(F)(F)F)nc(N4CCNCC4)c23)cc1 [Compound 21i, 4-(3-(4-Fluorophenyl)-6-(trifluoromethyl)isoxazolo[5,4-d]pyrimidin-4-yl)piperazin-1-ium chloride] | highly cytotoxic | – | – | – | – | – | – | – | cytotoxic | –
6 | CC1CCCN(c2nc(C(F)(F)F)nc3onc(-c4ccc(F)cc4)c23)C1 (stereo not drawn) [Compound 21a, 3-(4-Fluorophenyl)-4-(3-methylpiperidin-1-yl)-6-(trifluoromethyl)isoxazolo[5,4-d]pyrimidine] | – | induced the secretion | did not increase significantly | induced the secretion | did not increase significantly | induced the secretion | induced the secretion | 7.8 ± 0.1 µM | noncytotoxic; also recorded: no cytotoxic effects | higher induction
